PubChem BioAssay (NCI)
Values joined by “and” are separate entries in the source; they are usually repeats but may differ in a detail not shown here. Equal entries are not always repeated.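 96-well plates; 48 h exposure; 5 concentrations. Endpoints by linear interpolation between flanking doses. Not reached: highest tested concentration assigned. GI50 is the concentration that inhibits growth by half. At the TGI there is no net growth.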

What was measured:
Assay in all cases: growth of human tumour cells (NCI), 48 h
[1] = test system: SK-MEL-28 melanoma
[2] = test system: KM12 colon
[3] = test system: SK-OV-3 ovarian
[4] = test system: HL-60(TB) leukemia
[5] = test system: ACHN renal
[6] = test system: MALME-3M melanoma
[7] = test system: NCI-H23 lung
[8] = test system: HCT-15 colon
[9] = test system: SF-539 CNS
[10] = test system: A498 renal

Row | Structure (SMILES) | TGI [1] | TGI [2] | TGI [3] | TGI [4] | TGI [5] | TGI [6] | TGI [7] | TGI [8] | TGI [9] | TGI [10] | GI50 [1] | GI50 [2] | GI50 [3] | GI50 [4] | GI50 [5] | GI50 [6] | GI50 [7] | GI50 [8] | GI50 [9] | GI50 [10]
1 | [N-]=[N+]=Nc1ccc(CCN2CCN(c3cccc(C(F)(F)F)c3)CC2)cc1I | > 100 µM | > 100 µM | > 100 µM | 45.2 µM | > 100 µM | > 100 µM | > 100 µM | > 100 µM | > 100 µM | > 100 µM |  |  |  |  |  |  |  |  |  | 
2 | COc1ccc(Cl)cc1Nc1nc(C(F)(F)F)ccc1C(=O)N/N=C/c1ccc([N+](=O)[O-])cc1 | > 100 µM | 4.98 µM | 5.77 µM | 7.18 µM | 5.42 µM | 5.59 µM | 7.52 µM | 5.11 µM | 19.1 µM | 6.45 µM | 2.79 µM | 1.79 µM | 1.73 µM | 2.14 µM | 2.18 µM | 2.3 µM | 2.05 µM | 1.29 µM | 3.05 µM | 1.86 µM
3 | Cc1cc(Cc2cc(C)c(O)c(C)c2)cc(C)c1O | 66.5 µM | 15.7 µM | 52.4 µM | 9.86 µM | > 100 µM | 59.2 µM | 74 µM | > 100 µM | 14.2 µM | 35.5 µM | 11.4 µM | 3.93 µM | 6.47 µM | 2.89 µM | 12.1 µM | 9.12 µM | 11.3 µM | 3.49 µM | 3.25 µM | 11.9 µM
4 | Clc1ccccc1C(n1ncc2ccccc21)n1ncc2ccccc21 | > 100 µM | > 100 µM | > 10 µM | 50.1 µM | > 100 µM | > 100 µM | > 100 µM | > 100 µM | > 100 µM | > 100 µM |  |  |  |  |  |  |  |  |  | 
5 | COc1cc(NS(C)(=O)=O)ccc1Nc1c2ccccc2nc2c(C)cccc12 | 7.68 µM and 13.7 µM | 2.42 µM and 3.74 µM | 7.8 µM and 11 µM | 0.889 µM and 0.669 µM | 1.28 µM and 1.57 µM | 3.81 µM and 3.2 µM | 2.88 µM and 11.4 µM | 2.61 µM and 3.53 µM | 0.699 µM and 0.584 µM | 1.03 µM and 1.6 µM | 1.1 µM and 1.33 µM | 0.416 µM and 0.558 µM | 0.302 µM and 0.332 µM | 0.0403 µM and 0.046 µM | 0.0427 µM and 0.0464 µM | 0.312 µM and 0.251 µM | 0.134 µM and 0.191 µM | 0.202 µM and 0.242 µM | 0.102 µM and 0.123 µM | 0.0806 µM and 0.0968 µM
6 | CC1=CC[C@@H]2C(C)(C)C(=O)CC[C@@]2(C)[C@@H]1COc1ccc2ccc(=O)oc2c1 | 45.2 µM | 23.7 µM | > 100 µM | 29.2 µM | 79.9 µM | 38.9 µM | 61.2 µM | 56.4 µM | 63.8 µM | > 100 µM | 16.7 µM | 9.15 µM | 31.9 µM | 7.3 µM | 15.3 µM | 14.4 µM | 15.3 µM | 13.4 µM | 20.1 µM | 6.56 µM
7 | CN(CCC#N)c1ccc(/C=C(\C#N)c2cccc(C(F)(F)F)c2)cc1 | > 100 µM | > 100 µM | > 100 µM | > 100 µM | > 100 µM | > 100 µM | > 100 µM | > 100 µM | > 100 µM | 8.89 µM | 6.4 µM | 2.97 µM | 36.7 µM | 3 µM | 4.13 µM | 3.59 µM | 3.86 µM | 3.14 µM | 4.31 µM | 1.44 µM
8 | CN(Cc1cnc(N)nc1N)c1ccc(C(=O)O)cc1 | > 100 µM | > 100 µM | > 100 µM | > 100 µM | > 100 µM | > 100 µM | > 100 µM | > 100 µM | > 100 µM | > 100 µM | > 100 µM | > 100 µM | > 100 µM | > 100 µM | > 100 µM | > 100 µM | > 100 µM | > 100 µM | > 100 µM | 4.25 µM
9 | Cc1nc2ccccc2c(=O)n1/N=C(\N=Nc1cc(Cl)ccc1Cl)c1cccc(-c2ccco2)c1 | > 100 µM | > 100 µM | > 100 µM | > 10 µM | > 100 µM | > 100 µM | > 100 µM | > 100 µM | > 100 µM | > 100 µM |  |  |  |  |  |  |  |  |  | 
10 | O=S(=O)(Nc1cc(Br)c(O)c2ccccc12)c1ccc(F)cc1 | 5.39 µM | 21.7 µM | 35.9 µM | 6.95 µM | 14.1 µM | 3.84 µM | 7.87 µM | 11.3 µM | 5.48 µM | 33.3 µM | 2.46 µM | 6.27 µM | 14.7 µM | 2.61 µM | 3.31 µM | 2.03 µM | 2.8 µM | 2.95 µM | 2.33 µM | 17.3 µM
11 | Cc1cc(=O)n(-c2ccccc2)c(=O)o1 | > 100 µM | > 100 µM | > 100 µM | > 100 µM | > 100 µM | > 100 µM | > 100 µM | > 100 µM | > 100 µM | > 100 µM |  |  |  |  |  |  |  |  |  | 
12 | Cc1csc(/C=N/NC(=O)c2nnn(-c3ccnc4c(C(F)(F)F)cccc34)c2C)c1 | > 100 µM | > 100 µM | > 100 µM | > 100 µM | > 100 µM | 92.2 µM | > 100 µM | > 100 µM | > 100 µM | > 100 µM | > 100 µM | > 100 µM | 28.7 µM | 50.3 µM | 63.8 µM | 26.9 µM | 48.1 µM | 36.9 µM | > 100 µM | 83.1 µM
13 | CC(C)N(C(=O)C12C3C4C5C3C1(C(=O)N(C(C)C)C(C)C)C5(C#N)C42)C(C)C (stereo not given) | > 100 µM | > 100 µM | > 100 µM | 39.4 µM | > 100 µM | > 100 µM | > 100 µM | > 100 µM | > 100 µM | > 100 µM |  |  |  |  |  |  |  |  |  | 
14 | Cc1c(C)c2c(c(C)c1NC(=O)/C=C\C(=O)O)CCC(C)(CCCC(C)CCCC(C)CCCC(C)C)O2 (stereo not given) | 3.28 µM | 3.17 µM | 3.25 µM | 6.82 µM | 3.07 µM | 3.16 µM | 4.52 µM | 4.65 µM | 3.11 µM | 2.7 µM | 1.79 µM | 1.67 µM | 1.73 µM | 1.38 µM | 1.7 µM | 1.7 µM | 2.1 µM | 1.83 µM | 1.68 µM | 1.38 µM
